Active and inactive are the calls of the source. The rule behind the calls is not given here.
Molecular target: Receptor-type tyrosine-protein kinase FLT3 (Homo sapiens) (UniProt P36888)
Experiment: inhibitors of Homo sapiens fms-like tyrosine kinase 3, primary HTS, cell-free, LANCE Ultra TR-FRET, NPC library from NCATS (AID 1117356)
Settings: recombinant FLT3, LANCE Ultra TR-FRET kinase assay, stronger effect = higher value

Sequence of Receptor-type tyrosine-protein kinase FLT3 (Homo sapiens) (P36888 whole entry, looked up): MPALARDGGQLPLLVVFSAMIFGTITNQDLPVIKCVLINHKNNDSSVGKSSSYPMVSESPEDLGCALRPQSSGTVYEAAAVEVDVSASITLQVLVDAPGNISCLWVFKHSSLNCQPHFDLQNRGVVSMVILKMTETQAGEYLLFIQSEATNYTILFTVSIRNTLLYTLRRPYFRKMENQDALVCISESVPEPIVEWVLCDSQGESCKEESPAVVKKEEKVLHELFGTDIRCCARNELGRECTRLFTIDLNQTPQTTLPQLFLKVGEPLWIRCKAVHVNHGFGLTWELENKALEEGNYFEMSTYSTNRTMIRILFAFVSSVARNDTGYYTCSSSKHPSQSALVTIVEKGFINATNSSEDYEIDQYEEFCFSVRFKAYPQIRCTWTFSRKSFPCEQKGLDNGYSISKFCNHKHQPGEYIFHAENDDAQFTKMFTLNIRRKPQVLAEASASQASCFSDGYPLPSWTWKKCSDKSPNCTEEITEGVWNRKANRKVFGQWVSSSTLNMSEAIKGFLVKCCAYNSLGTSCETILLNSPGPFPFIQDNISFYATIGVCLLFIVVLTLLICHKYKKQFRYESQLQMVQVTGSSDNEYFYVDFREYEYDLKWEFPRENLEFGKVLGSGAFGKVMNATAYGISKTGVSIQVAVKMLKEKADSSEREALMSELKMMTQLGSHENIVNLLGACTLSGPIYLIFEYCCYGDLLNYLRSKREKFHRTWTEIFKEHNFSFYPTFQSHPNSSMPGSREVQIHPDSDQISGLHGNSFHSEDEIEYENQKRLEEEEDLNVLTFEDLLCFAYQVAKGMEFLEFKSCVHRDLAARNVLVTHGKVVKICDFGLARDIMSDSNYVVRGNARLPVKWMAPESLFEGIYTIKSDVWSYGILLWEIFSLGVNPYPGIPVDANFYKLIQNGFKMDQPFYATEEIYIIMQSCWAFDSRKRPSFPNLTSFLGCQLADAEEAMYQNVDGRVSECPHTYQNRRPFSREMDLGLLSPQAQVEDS

Compound | inhibition (at 20 µM) | inhibition (inhibition, at 0.2 µM) [%] | inhibition (inhibition, at 2 µM) [%]
COc1ccc(-c2ccc3cc(C(=O)O)ccc3c2)cc1C12CC3CC(CC(C3)C1)C2 | 29.6% (inactive) | -12.3 | -71.5
COc1cc(NCc2ccc3nc(N)nc(N)c3c2C)cc(OC)c1OC | -229% (inactive) | -7.18 | 0.42
Cc1cc(=O)c2c(O)c3c(O)cc(=O)c4c3c3c(cc(O)c1c23)C(C)(C)C=4O | 62.5% | -7.52 | 65.4
O=C(Nc1ccc([N+](=O)[O-])cc1Cl)c1cc(Cl)ccc1O | 19.6% (inactive) | -17.5 | 12.3
COc1ccc(-c2nc3ccc(C4=NNC(=O)CC4C)cc3[nH]2)cc1 (configuration not stated) | 72.3% | -3.88 | 35.3
COC(=O)Nc1nc2ccc(C(=O)C3CC3)cc2[nH]1 | 68.8% | -3.31 | 33.1
C=C(C)[C@H]1Cc2c(ccc3c2O[C@@H]2COc4cc(OC)c(OC)cc4[C@@H]2C3=O)O1 | 1.11% (inactive) | -12.6 | 7.73
CC[C@@]1(O)C(=O)OCc2c1cc1n(c2=O)Cc2c-1nc1ccccc1c2/C=N/OC(C)(C)C | -19.6% (inactive) | -33.4 | -2.36
O=c1c(-c2ccccc2)c1-c1ccccc1 | 41.7% (inactive) | -22 | 10.9
COc1cc2c(c(OC)c1OC)-c1ccc(OC)c(=O)cc1[C@@H](NC(C)=O)CC2 | -1.26% (inactive) | -14.9 | 5.22
NC(=NCCCCCCN=C(N)/N=C(\N)Nc1ccc(Cl)cc1)/N=C(\N)Nc1ccc(Cl)cc1 | 10.1% (inactive) | -2.84 | 22.6
O=C1c2c(O)ccc(O)c2C(=O)c2c(NCCNCCO)ccc(NCCNCCO)c21 | -19.7% (inactive) | -9.01 | 36.3
CCC(C)n1ncn(-c2ccc(N3CCN(c4ccc(OC[C@H]5CO[C@](Cn6cncn6)(c6ccc(Cl)cc6Cl)O5)cc4)CC3)cc2)c1=O (some centres not stated) | -23.6% (inactive) | -46.1 | 0.24
Oc1c(Cl)cc(Cl)cc1Sc1cc(Cl)cc(Cl)c1O | 13.6% (inactive) | -17 | 3.25
CC(C)C[C@H](NC(=O)[C@H](Cc1ccccc1)NC(=O)c1cnccn1)B(O)O | 3.25% (inactive) | -26.9 | 13.7
COc1ccc2cc1Oc1ccc(cc1)C[C@H]1c3c(cc4c(c3Oc3cc5c(cc3OC)CCN(C)[C@@H]5C2)OCO4)CCN1C | -6.46% (inactive) | -16 | -0.97
Cn1cnc([N+](=O)[O-])c1Sc1ncnc2nc[nH]c12 | -6.53% (inactive) | -22.4 | 4.78
Cc1cc(C2CCCCC2)n(O)c(=O)c1 | -4.08% (inactive) | -25.7 | -3.23
Cc1ccccc1C(=O)Nc1ccc(C(=O)N2CCCC(N(C)C)c3ccccc32)cc1 (configuration not stated) | -14% (inactive) | -17.9 | 9.15
Cc1ccc([N+](=O)[O-])[c]2c1[O][Hg]2 | 61.9% | -27.4 | 26.6
Oc1c(Cl)cc(Cl)c2cccnc12 | -9.04% (inactive) | -28.1 | -0.96
COC(=O)c1nc(Cl)c(Cl)nc1N | 60.2% | 16.3 | 51
COC(=O)Nc1nc2ccc(C(=O)c3cccs3)cc2[nH]1 | 33.9% (inactive) | -29.8 | 27.3
CCCCC1C(=O)N(c2ccccc2)N(c2ccc(O)cc2)C1=O (configuration not stated) | -2.38% (inactive) | -10 | 17.6

Reference: PubChem BioAssay AID1117356 (Cheminformatics & Chemogenomics Research Group (CCRG), …, 2015)
